What was measured:
[1] = target: recombinant Plk1 (Homo sapiens, UniProt P53350); experiment: In Vitro Plk1 Enzyme Assay (SPA, GST-Cdc25C phosphorylation); type: biochemical; settings: ATP 64 nM, 90 minutes, read-out: IC50 (Plk1 enzyme inhibition)
[2] = test system: human colon tumour cell line HT29; experiment: Cellular Assay (phosphohistone H3 Ser10 mitotic marker, HT29); type: cell-based; settings: HT-29, 24 h, HT29 cells, read-out: IC50 (cellular assay, phosphohistone H3)

Chain of recombinant Plk1 (P53350 whole entry): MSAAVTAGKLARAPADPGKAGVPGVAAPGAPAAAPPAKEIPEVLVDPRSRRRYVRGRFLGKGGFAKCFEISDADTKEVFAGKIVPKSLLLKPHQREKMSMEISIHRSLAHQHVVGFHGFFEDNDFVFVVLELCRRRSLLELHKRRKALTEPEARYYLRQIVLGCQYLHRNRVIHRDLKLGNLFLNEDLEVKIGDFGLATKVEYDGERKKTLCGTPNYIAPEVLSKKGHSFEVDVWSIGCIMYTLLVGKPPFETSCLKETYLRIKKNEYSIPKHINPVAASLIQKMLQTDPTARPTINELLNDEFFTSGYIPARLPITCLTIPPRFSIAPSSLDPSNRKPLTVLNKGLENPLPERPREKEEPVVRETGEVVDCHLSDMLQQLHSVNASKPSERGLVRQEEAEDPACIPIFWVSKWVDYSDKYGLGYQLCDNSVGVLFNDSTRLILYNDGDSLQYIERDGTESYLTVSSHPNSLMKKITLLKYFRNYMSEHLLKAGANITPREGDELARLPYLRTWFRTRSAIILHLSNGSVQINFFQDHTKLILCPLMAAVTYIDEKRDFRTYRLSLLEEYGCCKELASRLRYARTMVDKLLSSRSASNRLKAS

Row | IC50 [1] [nM] | IC50 [2] [nM] | Compound
1 | < 300 | < 300 | CCN(CC)CCCC(C)NC(=O)c1ccc(Nc2ncc3c(n2)N(C2CCCC2)CCC(=O)N3C)c(OC)c1 (centres unmarked) [Example 17, 4-[(6-cyclopentyl-2-methyl-3-oxo-2,6,8,10-tetrazabicyclo[5.4.0]undeca-8,10,12-trien-9-yl)amino]-N-(5-diethylaminopentan-2-yl)-3-methoxy-benzamide]
2 | < 300 | < 300 | CCN(CC)CCNC(=O)c1ccc(Nc2ncc3c(n2)N(C2CCCC2)CCC(=O)N3C)c(OC)c1 [Example 18, 4-[(6-cyclopentyl-2-methyl-3-oxo-2,6,8,10-tetrazabicyclo[5.4.0]undeca-8,10,12-trien-9-yl)amino]-N-(2-diethylaminoethyl)-3-methoxy-benzamide]
3 | < 300 | < 300 | COc1cc(C(=O)NCCCN2CCN(C)CC2)ccc1Nc1ncc2c(n1)N(C1CCCC1)CCC(=O)N2C [Example 20, 4-[(6-cyclopentyl-2-methyl-3-oxo-2,6,8,10-tetrazabicyclo[5.4.0]undeca-8,10,12-trien-9-yl)amino]-3-methoxy-N-[3-(4-methylpiperazin-1-yl)propyl]benzamide]
4 | < 300 | < 300 | COc1cc(C(=O)NCCCCN(C)C)ccc1Nc1ncc2c(n1)N(C1CCCC1)CCC(=O)N2C [Example 21, 4-[(6-cyclopentyl-2-methyl-3-oxo-2,6,8,10-tetrazabicyclo[5.4.0]undeca-8,10,12-trien-9-yl)amino]-N-(4-dimethylaminobutyl)-3-methoxy-benzamide]
5 | < 300 | < 300 | COc1cc(C(=O)NCCCN2CCOCC2)ccc1Nc1ncc2c(n1)N(C1CCCC1)CCC(=O)N2C [Example 25, 4-[(6-cyclopentyl-2-methyl-3-oxo-2,6,8,10-tetrazabicyclo[5.4.0]undeca-8,10,12-trien-9-yl)amino]-3-methoxy-N-(3-morpholin-4-ylpropyl)benzamide]
6 | < 300 | < 300 | COCCN1CCC(NC(=O)c2ccc(Nc3ncc4c(n3)N(C3CCCC3)CCC(=O)N4C)c(OC)c2)CC1 [Example 29, 4-[(6-cyclopentyl-2-methyl-3-oxo-2,6,8,10-tetrazabicyclo[5.4.0]undeca-8,10,12-trien-9-yl)amino]-3-methoxy-N-[1-(2-methoxyethyl)-4-piperidyl]benzamide]
7 | < 300 | < 300 | CCN(CC)CCCCNC(=O)c1ccc(Nc2ncc3c(n2)N(C2CCCC2)CCC(=O)N3C)c(OC)c1 [Example 30, 4-[(6-cyclopentyl-2-methyl-3-oxo-2,6,8,10-tetrazabicyclo[5.4.0]undeca-8,10,12-trien-9-yl)amino]-N-(4-diethylaminobutyl)-3-methoxy-benzamide]
8 | < 1000 | < 300 | COc1cc(C(=O)NCCCCn2ccnc2)ccc1Nc1ncc2c(n1)N(C1CCCC1)CCC(=O)N2C [Example 31, 4-[(6-cyclopentyl-2-methyl-3-oxo-2,6,8,10-tetrazabicyclo[5.4.0]undeca-8,10,12-trien-9-yl)amino]-N-(4-imidazol-1-ylbutyl)-3-methoxy-benzamide]
9 | < 1000 | < 300 | COc1cc(C(=O)NCCN2CC3CCC(C2)O3)ccc1Nc1ncc2c(n1)N(C1CCCC1)CCC(=O)N2C [Example 32, 4-[(6-cyclopentyl-2-methyl-3-oxo-2,6,8,10-tetrazabicyclo[5.4.0]undeca-8,10,12-trien-9-yl)amino]-3-methoxy-N-[2-(8-oxa-3-azabicyclo[3.2.1]oct-3-yl)ethyl]benzamide]

Row | Compound | IC50 [1] [nM] | IC50 [2] [nM]
10 | COc1cc(C(=O)NC2CN3CCC2CC3)ccc1Nc1ncc2c(n1)N(C1CCCC1)CCC(=O)N2C (centres unmarked) [Example 22, N-(1-azabicyclo[2.2.2]oct-8-yl)-4-[(6-cyclopentyl-2-methyl-3-oxo-2,6,8,10-tetrazabicyclo[5.4.0]undeca-8,10,12-trien-9-yl)amino]-3-methoxy-benzamide] | < 300 | < 300
